# Data: PubChem BioAssay (NCI)
#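 96-well plates; 48 h exposure; 5 concentrations. Endpoints by linear interpolation between flanking doses. Not reached: highest tested concentration assigned. GI50 marks 50% less growth. TGI is the concentration that stops growth completely.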
# Key:
# Experiment in all cases: NCI anticancer screen, dose series, 48 h
# HCC-2998 colon = system: HCC-2998 colon
# HOP-62 NSCLC = system: HOP-62 NSCLC
# IGROV1 ovarian = system: IGROV1 ovarian
# K-562 leukemia = system: K-562 leukemia
# LOX IMVI melanoma = system: LOX IMVI melanoma
# NCI/ADR-RES ovarian = system: NCI/ADR-RES ovarian
# OVCAR-4 ovarian = system: OVCAR-4 ovarian
# SF-539 CNS = system: SF-539 CNS
# SK-MEL-2 melanoma = system: SK-MEL-2 melanoma
# UACC-257 melanoma = system: UACC-257 melanoma
SMILES,GI50 (HCC-2998 colon),TGI (HCC-2998 colon),GI50 (HOP-62 NSCLC),TGI (HOP-62 NSCLC),GI50 (IGROV1 ovarian),TGI (IGROV1 ovarian),GI50 (K-562 leukemia),TGI (K-562 leukemia),GI50 (LOX IMVI melanoma),TGI (LOX IMVI melanoma),GI50 (NCI/ADR-RES ovarian),TGI (NCI/ADR-RES ovarian),GI50 (OVCAR-4 ovarian),TGI (OVCAR-4 ovarian),GI50 (SF-539 CNS),TGI (SF-539 CNS),GI50 (SK-MEL-2 melanoma),TGI (SK-MEL-2 melanoma),GI50 (UACC-257 melanoma),TGI (UACC-257 melanoma)
CC(=O)N[C@@H](Cc1ccc(OP(=O)(O)O)cc1)C(=O)N[C@H]1CCC(=O)N2CCC[C@@H](C(=O)NCc3cccc4ccccc34)N2C1=O,> 25 µM,> 25 µM,> 25 µM,> 25 µM,> 25 µM,> 25 µM,> 25 µM,> 25 µM,> 25 µM,> 25 µM,> 25 µM,> 25 µM,> 25 µM,> 25 µM,> 25 µM,> 25 µM,> 25 µM,> 25 µM,> 25 µM,> 25 µM
O=C(O)c1cc(C(=O)C(=O)c2cc(C(=O)O)c(O)c3ccccc23)c2ccccc2c1O,–,> 100 µM,–,> 100 µM,–,> 100 µM,–,> 100 µM,–,> 100 µM,–,> 100 µM,–,> 100 µM,–,> 100 µM,–,> 100 µM,–,> 100 µM
COC(=O)Nc1nc2ccc(C(=O)C3CC3)cc2[nH]1,0.771 µM,–,0.523 µM,> 42.2 µM,0.29 µM,18.2 µM,0.417 µM,> 100 µM,0.72 µM,> 100 µM,0.329 µM,9.82 µM,0.551 µM,> 100 µM,0.311 µM,3.06 µM,3.31 µM,> 70.1 µM,0.417 µM,> 100 µM
COc1c(O)cc2c(c1CC=C(C)C)OC(=O)c1c(cc(O)c(CC=C(C)C)c1O)O2,2.56 µM,5.72 µM,4.19 µM,7.72 µM,4.14 µM,7.91 µM,5.91 µM,17 µM,3.53 µM,7.68 µM,4.03 µM,8.69 µM,4.04 µM,7.61 µM,4.46 µM,8.52 µM,4.38 µM,8.58 µM,4.06 µM,7.67 µM
O=C(CSc1nc2ccc([N+](=O)[O-])cc2[nH]1)Nc1ccc([N+](=O)[O-])cc1,3 µM,15.3 µM,2.32 µM,12.1 µM,2.71 µM,15.2 µM,2.49 µM,> 100 µM,2.75 µM,12.2 µM,2.46 µM,8.19 µM,1.92 µM,29.3 µM,2.96 µM,11.9 µM,1.97 µM,5.81 µM,1.75 µM,6.71 µM
Clc1ccc(Nc2ncnc3ccccc23)cc1,> 100 µM,> 100 µM,> 100 µM,> 100 µM,12.9 µM,> 100 µM,28 µM,> 100 µM,46.8 µM,> 100 µM,53.7 µM,> 100 µM,> 100 µM,> 100 µM,> 100 µM,> 100 µM,–,–,49.9 µM,> 100 µM
CSc1nc(SC)c2c(C)cn(Cc3ccccc3)c2n1,–,> 100 µM,–,> 100 µM,–,> 100 µM,–,–,–,> 100 µM,–,> 100 µM,–,> 100 µM,–,> 100 µM,–,> 100 µM,–,–
Cc1ccc([I+]c2ccc(C)cc2)cc1,6.44 µM,> 100 µM,–,–,4.42 µM,> 100 µM,–,–,2.33 µM,> 100 µM,> 100 µM,> 100 µM,7.75 µM,> 100 µM,16.4 µM,> 100 µM,14.1 µM,94.4 µM,2.71 µM,57.4 µM
